In this assay the test system is DLD-1 colon cancer cells. The assay is described as follows: Inhibition of P-glycoprotein: paclitaxel cytotoxicity with and without cyclosporin. It counts as cell-based, human. The settings on record: for IC50: Homo sapiens.

≈ marks a conversion by molar mass, not a printed value.

A word on the IC50: it is the midpoint of a concentration-inhibition curve. Take `CC(=O)O[C@H]1C(=O)[C@@]2(C)[C@H]([C@H](OC(=O)c3ccccc3)[C@]3(O)C[C@H](OC(=O)[C@H](O)[C@@H](NC(=O)c4ccccc4)c4ccccc4)C(C)=C1C3(C)C)[C@]1(OC(C)=O)CO[C@@H]1C[C@@H]2O` [paclitaxel]: the “decrease of IC50 with cyclosporin as compared to paclitaxel alone” value (1.88 μg/mL cyclosporin, DLD-1 cells) is given as 15 times. Besides, the IC50 is, setting by setting: (DLD-1, DLD-1 cells treated with 1.88 μg/mL cyclosporin) 0.011 µg/mL; (DLD-1, paclitaxel administered alone, DLD-1 cells) 0.16 µg/mL (≈ 0.187 µM).

Source of the values: patent US20110224151A1, “Polymeric Micelle Composition for Treatment of Resistant Cancer and Preparation Method of the Same” (SAMYANG CORPORATION, priority 2008, published 2011).
